What is called IC50 is the point on the concentration scale where inhibition reaches its midpoint. A lower IC50 goes with greater potency in that assay.

In BindingDB's records for patent US12552798 (Henan Zhiwei Biomedicine Co., 2026) one finds IC50 data, which are given here for 2 molecules.

What all share (assay): BTK, BMX, EGFR and ITK Inhibitory Assay
For assay [1], the target named is Tyrosine-protein kinase BTK (Homo sapiens, UniProt Q06187). Here is the method:
(§1) Kinase inhibitory activities of compounds were evaluated using the Enzyme-linked immunosorbent assay (ELISA). The kinase enzyme of BTK, BMX, EGFR and ITK were purchased from Carna Bioscience (Kobe, Japan). A total of 10 ng/mL antiphosphotyrosine (PY713) antibody (abcam, Cambridge Science Park, UK) was precoated in 96-well ELISA plates. The kinase enzymes in each reaction well were set to BTK (101.25 ng/mL), BMX (90 ng/mL), EGFR (90 ng/mL) or ITK (120 ng/mL) and incubated with indicated compounds in 1× reaction buffer (50 mmol/L HEPES pH 7.4, 20 mmol/L MgCl2, 0.1 mmol/L MnCl2, 1 mmol/L DTT) containing 20 μmol/L (the final concentration of substrate in ITK reaction was 30 μmol/L) substrate (NH2-ETVYSEVRK-biotin) at 25° C. for 1 h. Then, a total of 3 μmol/L ATP was added and the reaction was continued for 2 hrs. The products of reaction were transferred into 96-well ELISA plates containing antibody and incubated at 25° C. for 30 min. After incubation, the wells were washed with PBS and then incubated with horseradish peroxidase […]-conjugated streptavidin. The wells were visualized using 3,3′,5,5′-tetramethylbenzidine (TMB), and chromogenic reaction was ended with 2 mol/L H2SO4, the absorbance was read with a multimode plate reader (PerkinElmer, USA) at 450 nm. IC50 values and curve fits were obtained using Prism (GraphPad Software).

Assay [2] has as its target Epidermal growth factor receptor (Homo sapiens, UniProt P00533). Here is the method:
as §1

In assay [3] the target is T1, Tyrosine-protein kinase ITK/TSK (Homo sapiens, UniProt Q08881).
T1 sequence (Q08881 whole entry): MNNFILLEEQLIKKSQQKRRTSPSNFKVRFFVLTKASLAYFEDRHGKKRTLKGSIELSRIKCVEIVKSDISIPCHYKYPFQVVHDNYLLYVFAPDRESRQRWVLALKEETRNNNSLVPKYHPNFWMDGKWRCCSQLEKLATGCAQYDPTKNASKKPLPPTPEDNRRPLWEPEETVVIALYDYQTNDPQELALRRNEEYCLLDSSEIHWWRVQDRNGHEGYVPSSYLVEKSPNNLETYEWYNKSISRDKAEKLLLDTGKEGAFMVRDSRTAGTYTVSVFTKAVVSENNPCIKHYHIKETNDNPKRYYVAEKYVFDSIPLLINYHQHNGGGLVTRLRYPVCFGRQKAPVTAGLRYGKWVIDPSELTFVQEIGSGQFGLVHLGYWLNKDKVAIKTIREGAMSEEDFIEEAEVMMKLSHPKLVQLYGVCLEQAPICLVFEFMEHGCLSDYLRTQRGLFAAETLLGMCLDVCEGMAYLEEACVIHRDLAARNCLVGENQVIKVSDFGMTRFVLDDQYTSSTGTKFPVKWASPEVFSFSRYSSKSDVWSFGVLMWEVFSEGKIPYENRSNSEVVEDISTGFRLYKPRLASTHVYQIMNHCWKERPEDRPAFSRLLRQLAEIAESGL
The procedure: as §1

Assay [4] concerns the target T2, Cytoplasmic tyrosine-protein kinase BMX (Homo sapiens, UniProt P51813).
T2 sequence (P51813 whole entry): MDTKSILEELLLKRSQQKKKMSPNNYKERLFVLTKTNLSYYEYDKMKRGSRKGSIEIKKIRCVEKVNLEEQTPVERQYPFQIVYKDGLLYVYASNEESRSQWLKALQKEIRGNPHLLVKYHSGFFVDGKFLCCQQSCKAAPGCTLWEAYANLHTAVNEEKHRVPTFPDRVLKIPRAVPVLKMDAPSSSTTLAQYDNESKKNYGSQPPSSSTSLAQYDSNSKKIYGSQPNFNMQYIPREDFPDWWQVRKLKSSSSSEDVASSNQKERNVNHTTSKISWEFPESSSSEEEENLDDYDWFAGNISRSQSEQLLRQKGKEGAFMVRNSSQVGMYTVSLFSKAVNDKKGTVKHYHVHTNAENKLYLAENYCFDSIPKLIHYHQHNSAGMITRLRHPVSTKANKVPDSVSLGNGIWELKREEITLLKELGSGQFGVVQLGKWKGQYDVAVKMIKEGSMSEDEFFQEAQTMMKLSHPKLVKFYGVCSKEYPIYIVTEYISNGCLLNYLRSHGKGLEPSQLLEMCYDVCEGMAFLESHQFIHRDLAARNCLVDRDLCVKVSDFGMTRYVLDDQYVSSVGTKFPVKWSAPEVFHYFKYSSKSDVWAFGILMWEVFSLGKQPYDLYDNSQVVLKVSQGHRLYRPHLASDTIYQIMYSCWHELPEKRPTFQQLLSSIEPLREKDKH
Here is the method: as §1

Sequence of Tyrosine-protein kinase BTK (Q06187 whole entry): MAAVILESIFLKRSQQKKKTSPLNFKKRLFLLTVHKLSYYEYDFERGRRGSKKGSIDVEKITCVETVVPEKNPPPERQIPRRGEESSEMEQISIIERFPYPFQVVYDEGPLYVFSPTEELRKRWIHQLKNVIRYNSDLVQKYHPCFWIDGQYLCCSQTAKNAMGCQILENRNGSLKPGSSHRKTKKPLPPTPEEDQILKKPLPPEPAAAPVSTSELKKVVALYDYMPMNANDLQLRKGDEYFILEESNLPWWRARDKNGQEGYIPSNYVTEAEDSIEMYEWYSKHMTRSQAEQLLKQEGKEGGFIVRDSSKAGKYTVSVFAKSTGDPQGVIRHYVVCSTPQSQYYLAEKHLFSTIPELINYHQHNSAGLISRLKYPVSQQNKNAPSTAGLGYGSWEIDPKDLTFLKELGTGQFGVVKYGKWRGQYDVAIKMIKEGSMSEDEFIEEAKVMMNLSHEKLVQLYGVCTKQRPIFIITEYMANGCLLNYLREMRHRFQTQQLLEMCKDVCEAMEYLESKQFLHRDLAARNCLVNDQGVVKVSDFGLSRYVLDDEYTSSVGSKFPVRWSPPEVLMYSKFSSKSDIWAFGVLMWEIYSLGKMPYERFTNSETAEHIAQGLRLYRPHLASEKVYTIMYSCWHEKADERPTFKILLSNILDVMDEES
Sequence of Epidermal growth factor receptor (P00533 whole entry): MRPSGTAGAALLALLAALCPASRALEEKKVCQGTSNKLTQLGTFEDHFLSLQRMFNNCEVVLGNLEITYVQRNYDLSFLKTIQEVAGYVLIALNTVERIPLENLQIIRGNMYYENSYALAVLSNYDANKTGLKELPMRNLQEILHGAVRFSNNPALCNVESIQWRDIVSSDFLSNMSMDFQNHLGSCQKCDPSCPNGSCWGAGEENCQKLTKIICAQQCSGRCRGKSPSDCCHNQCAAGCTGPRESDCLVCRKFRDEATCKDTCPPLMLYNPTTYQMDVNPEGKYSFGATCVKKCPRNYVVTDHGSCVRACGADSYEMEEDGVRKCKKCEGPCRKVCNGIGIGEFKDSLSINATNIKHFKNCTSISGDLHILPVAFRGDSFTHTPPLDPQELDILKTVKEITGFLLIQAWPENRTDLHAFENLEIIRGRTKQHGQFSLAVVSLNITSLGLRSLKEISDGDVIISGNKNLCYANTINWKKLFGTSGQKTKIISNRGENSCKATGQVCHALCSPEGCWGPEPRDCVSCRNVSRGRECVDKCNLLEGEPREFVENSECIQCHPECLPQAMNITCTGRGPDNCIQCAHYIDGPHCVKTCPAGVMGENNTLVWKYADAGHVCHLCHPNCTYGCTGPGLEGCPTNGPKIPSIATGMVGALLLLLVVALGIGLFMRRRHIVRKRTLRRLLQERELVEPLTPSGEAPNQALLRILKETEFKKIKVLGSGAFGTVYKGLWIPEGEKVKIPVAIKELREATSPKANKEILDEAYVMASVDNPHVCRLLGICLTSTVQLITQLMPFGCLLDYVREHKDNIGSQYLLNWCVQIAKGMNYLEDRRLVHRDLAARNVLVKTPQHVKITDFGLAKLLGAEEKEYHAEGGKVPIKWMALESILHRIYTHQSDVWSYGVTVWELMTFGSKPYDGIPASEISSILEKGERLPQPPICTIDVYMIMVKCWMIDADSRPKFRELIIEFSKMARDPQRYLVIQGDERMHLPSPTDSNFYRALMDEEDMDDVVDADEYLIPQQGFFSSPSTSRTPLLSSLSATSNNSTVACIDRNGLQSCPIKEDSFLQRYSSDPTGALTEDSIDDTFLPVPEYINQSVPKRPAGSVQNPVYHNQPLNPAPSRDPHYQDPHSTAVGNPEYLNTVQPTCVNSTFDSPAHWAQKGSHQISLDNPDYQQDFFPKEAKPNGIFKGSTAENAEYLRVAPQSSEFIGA

`CC#CC(=O)N1CC(C2CCNn3c2nc(-c2ccc(Oc4ccccc4)cc2)c3C(N)=O)C1` (stereo not given) [US12552798, Example 19] returned an IC50 in assay [1] of 230 nM.

For `NC(=O)c1c(-c2ccc(Oc3ccccc3)cc2)nc2n1NCCC2C1CN(C(=O)/C=C/C(F)(F)F)C1` (stereo not given) [US12552798, Example 20], the IC50 turned out to be 3240 nM in assay [2], 8650 nM in assay [3], 8 nM in assay [1] and 70.3 nM in assay [4].
